The results in this text go back to patent publication US5604294A, “Macrocyclic immunomodulators” (priority 1994, dated 1997).

What is called IC50 is the concentration needed to halve the response being measured. Read a high IC50 as weaker potency.

In the first experiment the test system is human mixed lymphocyte reaction (MLR). Put plainly: human mixed lymphocyte reaction (MLR) assay (immunosuppressant activity). Conditions: Lymphocyte, Table 1. Type of experiment: cell-based. On the procedure: The immunosuppressant activity of the compounds of the present invention was determined using the human mixed lymphocyte reaction (MLR) assay described by Kino, T. et al. in Transplantation Proceedings, XIX(5):36-39,Suppl.
`CC[C@@H]1/C=C(\C)C[C@H](C)C[C@H](OC)[C@H]2O[C@@](O)(C(=O)C(=O)N3CCCC[C@H]3C(=O)O[C@H](/C(C)=C/[C@@H]3CC[C@@H](OC(=S)Oc4ccccc4)[C@H](OC)C3)[C@H](C)[C@@H](O)CC1=O)[C@H](C)C[C@@H]2OC` [Example 1] had an IC50 of 0.7 nM.
Take `CC[C@@H]1/C=C(\C)C[C@H](C)C[C@H](OC)[C@H]2O[C@@](O)(C(=O)C(=O)N3CCCC[C@H]3C(=O)O[C@H](/C(C)=C/[C@@H]3CC[C@@H](O)[C@H](OC)C3)[C@H](C)C=CC1=O)[C@H](C)C[C@@H]2OC` [Example 3]: the IC50 amounted to 80 nM.
On the same count and under the same terms, for `CC[C@@H]1/C=C(\C)C[C@H](C)C[C@H](OC)[C@H]2O[C@@](O)(C(=O)C(=O)N3CCCC[C@H]3C(=O)O[C@H](/C(C)=C/[C@@H]3CCC(=O)[C@H](OC)C3)[C@H](C)[C@@H](O)CC1=O)[C@H](C)C[C@@H]2OC` [Example 4] the value was 0.4 nM; for `CC[C@@H]1/C=C(\C)C[C@H](C)C[C@H](OC)[C@H]2O[C@@](O)(C(=O)C(=O)N3CCCC[C@H]3C(=O)O[C@H](/C(C)=C/[C@@H]3CC[C@@H](O)[C@H](OC)C3)[C@H](C)C(=O)CC1=O)[C@H](C)C[C@@H]2OC` [Example 7], 113 nM; for `CC[C@@H]1/C=C(\C)C[C@H](C)C[C@H](OC)[C@H]2O[C@@](O)(C(=O)C(=O)N3CCCC[C@H]3C(=O)O[C@H](/C(C)=C/[C@@H]3CC[C@@H](O)[C@H](OC)C3)[C@H](C)c3cc1nn3CCO)[C@H](C)C[C@@H]2OC` [Example 8], 380 nM.
The same measure, in the same setting: for `CC[C@@H]1/C=C(\C)C[C@H](C)C[C@H](OC)[C@H]2O[C@@](O)(C(=O)C(=O)N3CCCC[C@H]3C(=O)O[C@H](/C(C)=C/[C@@H]3CC[C@@H](OC(=N)C(Cl)(Cl)Cl)[C@H](OC)C3)[C@H](C)[C@@H](O)CC1=O)[C@H](C)C[C@@H]2OC` [Example 9] the value was 0.02 nM; for `CC[C@@H]1/C=C(\C)C[C@H](C)C[C@H](OC)[C@H]2O[C@@](O)(C(=O)C(=O)N3CCCC[C@H]3C(=O)O[C@H](/C(C)=C/[C@@H]3CC[C@@H](O)[C@H](OC)C3)[C@H](C)C(N3CCN(Cc4ccccc4)CC3)CC1=O)[C@H](C)C[C@@H]2OC` (stereo partly drawn) [Example 16], 191 nM; for `CC[C@@H]1/C=C(\C)C[C@H](C)C[C@H](OC)[C@H]2O[C@@](O)(C(=O)C(=O)N3CCCC[C@H]3C(=O)O[C@H](/C(C)=C/[C@@H]3CC[C@@H](O)[C@H](OC)C3)[C@H](C)C(N3CCN(C)CC3)CC1=O)[C@H](C)C[C@@H]2OC` (stereo partly drawn) [Example 17], 47.4 nM.
On the same count and under the same terms, the same measure for `CC[C@@H]1/C=C(\C)C[C@H](C)C[C@H](OC)[C@H]2O[C@@](O)(C(=O)C(=O)N3CCCC[C@H]3C(=O)O[C@H](/C(C)=C/[C@@H]3CC[C@@H](O)[C@H](OC)C3)[C@H](C)C(N3CCN(c4ccccc4)CC3)CC1=O)[C@H](C)C[C@@H]2OC` (stereo partly drawn) [Example 18]: 119 nM; for `CC[C@@H]1/C=C(\C)C[C@H](C)C[C@H](OC)[C@H]2O[C@@](O)(C(=O)C(=O)N3CCCC[C@H]3C(=O)O[C@H](/C(C)=C/[C@@H]3CC[C@@H](O)[C@H](OC)C3)[C@H](C)[C@@H](OC(=O)CI)CC1=O)[C@H](C)C[C@@H]2OC` [Example 21]: 9.3 nM.
Molecule `CC[C@@H]1/C=C(\C)C[C@H](C)C[C@H](OC)[C@H]2O[C@@](O)(C(=O)C(=O)N3CCCC[C@H]3C(=O)O[C@H](/C(C)=C/[C@@H]3CC[C@@H](OC(=O)CI)[C@H](OC)C3)[C@H](C)[C@@H](O)CC1=O)[C@H](C)C[C@@H]2OC` [Example 23] yielded an IC50 of 1.4 nM.
The same measure, in the same setting: for `CC[C@@H]1/C=C(\C)C(O)[C@H](C)C[C@H](OC)[C@H]2O[C@@](O)(C(=O)C(=O)N3CCCC[C@H]3C(=O)O[C@H](/C(C)=C/[C@@H]3CC[C@@H](O)[C@H](OC)C3)[C@H](C)[C@@H](OC(=O)CI)CC1=O)[C@H](C)C[C@@H]2OC` (stereo partly drawn) [Example 25] the value was 203 nM.
Still for that read-out and setting: the same measure for `CC[C@@H]1/C=C(\C)C(O)[C@H](C)C[C@H](OC)[C@H]2O[C@@](O)(C(=O)C(=O)N3CCCC[C@H]3C(=O)O[C@H](/C(C)=C/[C@@H]3CC[C@@H](OC(=O)CI)[C@H](OC)C3)[C@H](C)[C@@H](O)CC1=O)[C@H](C)C[C@@H]2OC` (stereo partly drawn) [Example 26]: 125 nM.
The molecule `CC[C@@H]1/C=C(\C)C[C@H](C)C[C@H](OC)[C@H]2O[C@@](O)(C(=O)C(=O)N3CCCC[C@H]3C(=O)O[C@H](/C(C)=C/[C@@H]3CC[C@@H](O)[C@H](OC)C3)[C@H](C)C(N3CCNCC3)CC1=O)[C@H](C)C[C@@H]2OC` (stereo partly drawn) [Example 27] had a 50% inhibitory concentration (IC50) of 521 nM.

Staying with this experiment, now noted: Table 1.
In turn, `CC[C@@H]1/C=C(\C)C[C@H](C)C[C@H](OC)[C@H]2O[C@@](O)(C(=O)C(=O)N3CCCC[C@H]3C(=O)O[C@H](/C(C)=C/[C@@H]3CC[C@@H](OP(=O)(Oc4ccccc4)Oc4ccccc4)[C@H](OC)C3)[C@H](C)[C@@H](OP(=O)(Oc3ccccc3)Oc3ccccc3)CC1=O)[C@H](C)C[C@@H]2OC` [Example 10] displayed an IC50 of 11.1 nM.
